Test results as given in US20240285726A1, “Bacteriocin for new application” (Syngulon S.A., priority 2021, published 2024).
Entries after “also recorded” stand apart in the source; their conditions may differ. Ends that are not written are not given here.

Experiments:
[1] = test system: S. aureus ATCC 6538; assay: Antimicrobial activity test on inoculated M17 agar plates (inhibition halo); assay type: cell-based, Staphylococcus aureus; settings: for antimicrobial activity of variants (inhibition halo): 5 μl of 1 mg/ml aqueous solution on M17 agar plates of S. aureus ATCC 6538, overnight incubation, compared with SEQ ID NO: 1
Method: (§1) Bacterial strains were grown overnight in liquid culture on rotary shakers or on agar plates using M17 media supplemented with 0.5% glucose. S. aureus ATCC 6538 and S. epidermidis ATCC 12228 liquid cultures and agar plates were grown anaerobically at 37° C. Culture volume utilized in MIC assays was 200 μl.
(§2) Antimicrobial activities of bacteriocins were tested on M17 agar plates in Examples 1 and 3. In Example 1, 2 μl of bacteriocin peptide (SEQ ID NO: 1) aqueous solutions at a concentration of 1 mg/ml were deposited on inoculated M17 agar plates of S. aureus ATCC 6538 and S. epidermidis ATCC 12228. An equivalent amount of aureocin A53 aqueous solution (1 mg/ml concentration) was used as positive control. In the case of S. epidermidis ATCC 12228, an equivalent amount of pediocin A1 aqueous solution (1 mg/ml concentration) was used as negative control.
In Example 3, 5 μl of bacteriocin peptides (SEQ ID NO: 1, 3-97) aqueous solutions at a concentration of 1 mg/ml were deposited on inoculated M17 agar plates of S. aureus ATCC 6538. After overnight incubation, the presence of an inhibition halo was considered as a positive result of antimicrobial activity.

[2] = test system: S. epidermidis ATCC 12228; assay: as above; assay type: cell-based, Staphylococcus epidermidis; settings: 2 μl of 1 mg/ml aqueous solution on inoculated M17 agar plate, overnight incubation
Method: as §1, §2

[3] = test system: S. aureus ATCC 6538; assay: MIC assay in liquid cultures (endpoint OD600); assay type: cell-based, Staphylococcus aureus; settings: calculated as average concentration between wells 10 and 11
Method: as §1
(§3) Determination of bacteriocin (SEQ ID NO: 1) MIC values was performed in liquid cultures. Growth was assessed by measuring endpoint OD600 values in a Spectramax i3 (Molecular Devices, CA, USA). Minimum inhibitory concentration (MIC) was defined as the lowest concentration of bacteriocin which inhibited 50% of the growth of cultures as compared to reference cultures not exposed to the bacteriocin. Concentration of the bacteriocin in well 11 was 250 μg/ml in the case of S. aureus ATCC 6538 and 500 μg/ml in the case of S. epidermidis ATCC 12228, diluted 2-fold per subsequent well as shown in Table 3 (concentrations rounded to the second decimal): […]

[4] = test system: S. epidermidis ATCC 12228; assay: MIC assay in liquid cultures (endpoint OD600); assay type: cell-based, Staphylococcus epidermidis; settings: liquid culture, concentrations 0.49 to 500 μg/ml
Method: as §1, §3

Row | Substance | antimicrobial activity of variants (inhibition halo) [1] | inhibition halo on agar plate [2] | also measured
1 | MAFLKLVAKLGPKAAKWAWANKGKVLGWIRDGLAIDWIINKINDIVN [SEQ ID NO: 54] | did not compromise its antimicrobial activity | – | –
2 | MLAFLKLVAKLGPKAAKWAWANKGKVLGWIRDGLAIDWIINKINDIVN [SEQ ID NO: 1] | – | no inhibition halo was visible; also recorded: no inhibition halo was present | inhibition halo on agar plate ([1]; 2 μl of 1 mg/ml aqueous solution on inoculated M17 agar plate, overnight incubation, S. aureus ATCC 6538): An inhibition halo was visible; MIC (lowest concentration inhibiting 50% of culture growth) [3]: 188 µg/mL; growth inhibition in MIC assay [4]: No growth inhibition was observed
3 | MLAFLKLVAKLGPKAAKWAWANKGKVLGWIRDGLAIINKINDIVN [SEQ ID NO: 62] | did not compromise its antimicrobial activity | – | –
4 | MLFLKLVAKLGPKAAKWAWANKGKVLGWIRDGLAIDWIINKINDIVN [SEQ ID NO: 55] | did not compromise its antimicrobial activity | – | –
5 | pediocin A1 [reference compound] | – | no inhibition halo was visible | –
6 | aureocin A53 [reference compound] | – | an inhibition halo was present | –
